From patent US20230301890A1, “COMPOSITIONS COMPRISING UROLITHINS” (Amazentis SA, priority 2022, published 2023)
“Also recorded” adds a separate entry of the source.

Legend:
[1] = tested on: human skin; experiment: RNA-seq transcriptomics and GSEA of forearm skin biopsies (aging study 1); type: in vivo; settings: 8 weeks; for expression of collagen genes (COL1A1, COL5A1, COL5A2, COL14A1, COL3A1) / gene set "collagen fibril organization" (Normalized Enrichment Score): 1% Mitopure product; for expression of collagen genes (COL1A1, COL5A1, COL5A2, COL14A1, COL3A1): change vs baseline normalized over placebo; for gene set "collagen fibril organization" (Normalized Enrichment Score): end of study vs baseline, normalized over placebo/vehicle
Procedure: In this study, a cosmetic product with a 1% concentration of the active Mitopure or a placebo product were tested on skin aging for 8 weeks. […] Gene set enrichment analysis (GSEA) was performed using the R package ClusterProfiler [Yu et al., 2012]. Briefly, in each comparison, genes were ranked by age beta score value, and the enrichment of a given gene set among up- or-down regulated genes was statistically tested. The minimum and maximum gene set sizes were set to 10 and 500, respectively. Resulting p-values were adjusted using the BH method. Terms with an adjusted p-value<0.05 were considered as statistically significant. To analyze mitochondrial effects biopsies will be taken from a subpanel on volar forearms prior and after 8 weeks of product application and will be analyzed for biomarkers by 3rd parties (See FIGS. 2 and 4). Gene set enrichment analysis (GSEA) will be employed to look for overrepresentation of known mitochondrial pathways and gene functional categories among the regulated genes expressed in human skin. Genes will be ranked by fold change (high to low) and filtered (unadjusted P value of 0.1 before using them) in the GSEA analysis to reduce the risk of false positives. Gene sets defined by the Gene Ontology (GO) Consortium (http://www.geneontology.org/) will be analyzed. We investigated biological pathways impacted by topical UA application performing RNA-seq transcriptomics of forearm skin biopsies from the aging study I. Gene set enrichment analysis (GSEA) was applied to identify significant pathways changed by UA comparing end of the study to baseline, and normalizing results over vehicle. […] We further studied which UA regulated pathways are involved in the natural skin aging process. […] This gene set includes collagen genes encoding for fibrillar type I and III collagen (FIG. 13B), known to decline in skin with chronological aging 13, photo-aging and smoking 14. […] Among them, […]-1, regulating 3D structure and elasticity 15 and AEBP, encoding for a collagen-interacting protein required for optimal tissue repair 16 (FIG. 13B).

[2] = tested on: facial wrinkles; experiment: Aging study 1: wrinkle analysis of Colorface images; type: in vivo, human
Source text: The effect of the test product on the skin barrier function will be assessed by transepidermal […] (TEWL) at the beginning as well as after 2 weeks and after 8 weeks of product application. Furthermore, effects on the facial skin on skin hydration (by Corneometer), skin elasticity and firmness (by Cutometer) and skin color (by Spectrophotometer) will be investigated. Additionally, skin layer thickness and undulation index of the dermal epidermal junction (DEJ) will be measured by line-field confocal optical coherence tomography (LC-OCT). Images for wrinkle analysis and for documentation purpose will be taken with Colorface. A questionnaire regarding product traits will be filled in after 2 weeks of product application and at the end of the study.
The following efficacy assessment(s) will be performed: • Biomarker analysis of 3 mm punch-biopsies on 30 subjects (15 subjects per group) by Sponsor/3rd party • Transepidermal Water Loss (TEWL) by Tewameter [g/(m2h)j • Skin Hydration—Skin Capacitance by Corneometer [a.u.j] (see FIG. 8) • Skin Color by Spectrophotometer • Skin Firmness—R0 (Uf) by Cutometer [mm] • Skin Elasticity—R7 (Ur/Uf) by Cutometer • Image analysis by line-field confocal optical coherence tomography (LC-OCT) by Damae**: • (a) Skin layer thickness (epidermis and stratum corneum) • (b) Undulation index of the dermal epidermal junction (DEJ) • Image analysis of Colorface Images by Newtone • (a) analysis of wrinkles and fine lines (see FIG. 7) • (b) creation of average face • Questionnaire of product traits • upon decision of the sponsor, depending on the results of the other instrumental measurements analysis will be done on either one group at three timepoints, or on two groups at two timepoints
COLORFACE® PHOTOBOX (Newtone Technologies, Lyon, France): Colorface® is used for standardized, computer-controlled facial photography. It is equipped with a 24 Mpixel Nikon camera and a various range of LED-flashes at fixed positions in the booth. Illumination of the face is done with • ? standard flashes • ? parallel-polarized light • ? cross-polarized light • □ UV flashes to obtain fluorescent images. The acquisition software for Colorface is used as image database, but also defines the settings for the respective study. All settings are fixed so that unwanted changes of image capture parameters can be avoided. The instrument enables facial photography of high quality and same illumination at different assessment times. Images of the following position of the face will be taken: • ? front • ? right • ? left • 1 single image per setting, face position and assessment time • Data will be stored in the Newtone Imaging access cloud • Images will be provided to the sponsor in an anonymized way (e.g., black bar covering eyes) if possible.
Crow's Feet Analysis: • Parameter: Visible length, Visible surface, Visible depth and Visible volume • Illumination: STD60 • View: profile: right and left • Area: Crow's Feet

[3] = tested on: skin barrier function; experiment: Skin barrier function (TEWL) by Tewameter, aging studies; type: in vivo, human; settings: UA 1% topical, 8 weeks
Procedure: TEWAMETER® TM 300 (Courage & Khazaka, Cologne, Germany): Transepidermal water loss (TEWL) is a non-invasive method to measure the barrier function of the skin and is regarded as a sensitive parameter to quantify skin barrier damage. Briefly, the insensible water evaporation from the skin is measured by placing cylindric open chamber with two hygrosensors at defined distance to the skin. The probe is held in place for each measurement for 30 seconds. This is to assure that a stable value has been established. The first part of the measurements belongs to this equilibration phase. The values of the last 10 seconds (=10 values) are averaged as the actual measurement value.
TEWAMETER® TM 300 (Courage & Khazaka, Cologne, Germany): Transepidermal water loss (TEWL) is a non-invasive method to measure the barrier function of the skin and is regarded as a sensitive parameter to quantify skin barrier damage. Briefly, the insensible water evaporation from the skin is measured by placing cylindric open chamber with two hygrosensors at defined distance to the skin.

Compound: O=c1oc2cc(O)ccc2c2ccc(O)cc12 [Urolithin A]
- expression of collagen genes (COL1A1, COL5A1, COL5A2, COL14A1, COL3A1) [1]: significant up-regulation
- expression of collagen genes (COL1A1, COL5A1, COL5A2, COL14A1, COL3A1) ([1]; listed as Mitopure): increased expression; also recorded: all upregulated; also recorded: improved expression
- gene set "collagen fibril organization" (Normalized Enrichment Score) [1]: significantly upregulated; also recorded: positive
- gene set "collagen fibril organization" (Normalized Enrichment Score) ([1]; listed as UA): most significantly activated pathway
- genes involved in skin homeostasis (EMILIN-1, AEBP) ([1]; UA 1% topical): rescued age-associated decline
- gene sets related to chemokine response ([1]; UA 1% topical, normalized over vehicle): reducing
- wrinkle depth ([2]; 0.5% Urolithin A skin cream, vs placebo): no impact
- wrinkle depth ([2]; 0.5% Urolithin A skin cream, vs placebo, listed as UA): did not showed any significant effect
- wrinkle depth ([2]; 0.5% Urolithin A skin cream, vs placebo, listed as urolithin A): Lack of anti-wrinkle effect
- wrinkle depth ([2]; 1% Urolithin A skin cream, 8 weeks twice daily, vs placebo treated side): significant impact on reducing wrinkle depth
- wrinkle depth ([2]; 1% Urolithin A skin cream, 8 weeks twice daily, vs placebo treated side, listed as UA): significant anti-wrinkle effects; also recorded: significant reduction
- wrinkle depth ([2]; 1% Urolithin A skin cream, 8 weeks twice daily, vs placebo treated side, listed as urolithin A): Reduction; also recorded: Anti-wrinkle effect
- reduction in wrinkles ([2]; cream containing Urolithin A at 1% alone): 4-6%
- skin barrier function [3]: no significant impact
